Test results reported in US7612225B2, “Crystal of triterpene derivative” (Shionogi & Co., Ltd., priority 2004, dated 2009).

What was measured:
[1] = Storage stability (40° C., 75% RH, 6 months; HPLC); assay type: physicochemical
Description: The form I dry crystals and the form II crystals of Compound (I) were used as samples. About 3 g of each of the samples was placed in a double polyethylene bag, and the bag containing the sample was stored in an aluminum can at 40° C. and 75% RH. After storage for 6 months, the amount of Compound (I) and the total amount of related substances of Compound (I) were measured by HPLC.

[2] = Stability against light (30±2° C., 1,200,000 or 3,600,000 Lux·hr; HPLC); assay type: physicochemical; settings: for change of total amount of related substances of Compound (I) (in words): after storage under light of 1,200,000 or 3,600,000 Lux·hr
Description: The form I dry crystals and the form II crystals of Compound (I) were used as samples. About 3 g of each of the samples was placed in each petri dish, and was then stored at an average temperature of 30±2° C. under light of 1,200,000 Lux·hr or 3,600,000 Lux·hr. After storage, the amount of Compound (I) and the total amount of related substances of Compound (I) were measured by HPLC.

[3] = 6 months at 40° C. and 75% RH, double polyethylene bag in aluminum can
[4] = 1,200,000 Lux·hr, 30±2° C., petri dish

| Amount of analogue B ([1]; 6 months at 40° C. and 75% RH) [%] | Total amount of related substances(%) ([1]; 6 months at 40° C. and 75% RH) | Amount of Compound (I)(%) [1, 3] [%] | Amount of Compound (I)(%) ([1]; Initial value) | Amount of analogue B ([1]; Initial value) [%] | Total amount of related substances(%) ([1]; Initial value) | change of amount of analogue B (in words) ([1]; after storage for 6 months at 40° C. and 75% RH) | change of total amount of related substances of Compound (I) (in words) ([1]; after storage for 6 months at 40° C. and 75% RH, listed as form I dry crystals) | Total amount of related substances(%) ([2]; 1,200,000 Lux·hr, 30±2° C.) | Amount of Compound (I)(%) [2, 4] [%] | Amount of Compound (I)(%) ([2]; Initial value) | Total amount of related substances(%) ([2]; Initial value) | change of total amount of related substances of Compound (I) (in words) ([2]; listed as form I dry crystals) | storage stability (in words) ([1]; 6 months at 40° C. and 75% RH) | change of total amount of related substances of Compound (I) (in words) ([1]; after storage for 6 months at 40° C. and 75% RH, listed as form II crystals) | Total amount of related substances(%) ([2]; 3,600,000 Lux·hr, 30±2° C.) | Amount of Compound (I)(%) ([2]; 3,600,000 Lux·hr, 30±2° C., petri dish) | change of total amount of related substances of Compound (I) (in words) ([2]; listed as form II crystals) | stability against light (in words) ([2]; light of 1,200,000 or 3,600,000 Lux·hr) | Compound |
| --- | --- | --- | --- | --- | --- | --- | --- | --- | --- | --- | --- | --- | --- | --- | --- | --- | --- | --- | --- |
| 0.21 | 0.43 | 97.8 | 99.8 | <0.05 | 0.16 | significantly increased | increased | 0.27 | 99.2 | 99.8 | 0.16 | increased |  |  |  |  |  |  | CC1(C)CC[C@]2(C(=O)O)CC[C@]3(COC(=O)/C=C/c4cc(O)ccc4NC(=O)/C=C/C(=O)O)C(=CCC4[C@@]5(C)CCC(=O)C(C)(C)C5CC[C@]43C)C2C1 (some centres unmarked) [Form I dry crystal, reference compound] |
| <0.05 | 0.17 | 98.6 | 98.9 | <0.05 | 0.21 |  |  | 0.17 | 99.4 | 100.3 | 0.15 |  | stable | hardly changed | 0.18 | 99.3 | hardly changed | stable against light | CC1(C)CC[C@]2(C(=O)O)CC[C@]3(COC(=O)/C=C/c4cc(O)ccc4NC(=O)/C=C/C(=O)O)C(=CCC4[C@@]5(C)CCC(=O)C(C)(C)C5CC[C@]43C)C2C1 (some centres unmarked) [Form II crystal] |
